The record followed here is patent US10435399B2, “HDAC6 inhibitory heterocyclic compound” (TAKEDA PHARMACEUTICAL COMPANY LIMITED, priority 2017, dated 2019).

The structures appear in SMILES notation.

The first experiment addresses T1, HDAC6 enzyme (Homo sapiens, UniProt Q9UBN7).
T1 construct: transducing full length HDAC6 gene into Sf-9 insect cells; GST; purchased SignalChem; host or cells: Sf-9 insect cells
T1 sequence (Q9UBN7 1-1215): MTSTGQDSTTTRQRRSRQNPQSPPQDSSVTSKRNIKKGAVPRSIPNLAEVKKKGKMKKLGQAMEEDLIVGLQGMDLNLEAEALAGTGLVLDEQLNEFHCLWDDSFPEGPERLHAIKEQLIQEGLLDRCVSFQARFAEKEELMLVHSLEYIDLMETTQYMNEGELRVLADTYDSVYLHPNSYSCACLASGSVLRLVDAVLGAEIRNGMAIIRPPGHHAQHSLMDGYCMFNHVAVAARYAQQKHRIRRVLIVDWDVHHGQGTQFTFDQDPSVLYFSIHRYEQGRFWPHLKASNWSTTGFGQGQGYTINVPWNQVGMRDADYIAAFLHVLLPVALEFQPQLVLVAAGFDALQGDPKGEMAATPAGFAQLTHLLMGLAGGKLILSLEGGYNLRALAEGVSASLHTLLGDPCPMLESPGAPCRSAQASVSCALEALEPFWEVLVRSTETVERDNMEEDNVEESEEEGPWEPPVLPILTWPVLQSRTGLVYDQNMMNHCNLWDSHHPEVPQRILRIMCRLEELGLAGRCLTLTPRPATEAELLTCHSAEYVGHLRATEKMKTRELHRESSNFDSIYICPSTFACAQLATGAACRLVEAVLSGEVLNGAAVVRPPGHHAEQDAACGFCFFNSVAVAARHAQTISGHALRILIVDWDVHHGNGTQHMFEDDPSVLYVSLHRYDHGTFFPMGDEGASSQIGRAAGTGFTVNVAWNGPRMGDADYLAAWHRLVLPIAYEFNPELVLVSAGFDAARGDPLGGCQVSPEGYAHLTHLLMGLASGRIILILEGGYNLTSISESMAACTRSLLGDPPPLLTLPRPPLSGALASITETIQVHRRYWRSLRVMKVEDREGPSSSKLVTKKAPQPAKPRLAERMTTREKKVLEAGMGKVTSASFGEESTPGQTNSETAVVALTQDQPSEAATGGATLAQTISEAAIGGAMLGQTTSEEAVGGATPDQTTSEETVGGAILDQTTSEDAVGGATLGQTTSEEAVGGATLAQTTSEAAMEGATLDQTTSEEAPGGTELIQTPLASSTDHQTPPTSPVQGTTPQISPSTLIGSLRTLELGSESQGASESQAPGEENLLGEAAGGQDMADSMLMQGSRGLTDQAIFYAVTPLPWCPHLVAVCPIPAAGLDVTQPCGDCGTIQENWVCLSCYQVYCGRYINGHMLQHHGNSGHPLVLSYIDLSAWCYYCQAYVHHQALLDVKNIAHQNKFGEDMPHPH
Briefly: HDAC6 enzyme inhibitory activity (HDAC-Glo I/II Assay kit). Format: biochemical. To be noted: 10 μM; wells without enzyme = 100% inhibition. The essentials: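 Luminescent HDAC-Glo I/II readout after 20 min room-temperature reaction with substrate-developer, following 60 min compound–enzyme preincubation. Enzyme: full-length HDAC6 from Sf-9 cells, GST-purified; buffer 24 mM Tris-HCl pH 7.5, 0.01% Tween-20, glutathione, salts. Wells lacking enzyme define 100% inhibition.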
As to `O=C1c2cc(-c3nnc(C(F)F)o3)ccc2CN1N1CCC(F)(F)CC1c1ccc(F)cc1` (stereo not drawn) [Example 573, 2-(4,4-difluoro-2-(4-fluorophenyl)piperidin-1-yl)-6-(5-(difluoromethyl)-1,3,4-oxadiazol-2-yl)isoindolin-1-one (optical isomer)], the “HDAC6 inhibitory rate (%) (10 μM)” value was 99%.

With `O=C(NCC(F)(F)F)C1CC(F)(F)CCN1N1Cc2ccc(-c3nnc(C(F)F)o3)cc2C1=O` (stereo not drawn) [Example 579, 1-(6-(5-(difluoromethyl)-1,3,4-oxadiazol-2-yl)-1-oxo-1,3-dihydro-2H-isoindol-2-yl)-4,4-difluoro-N-(2,2,2-trifluoroethyl)piperidine-2-carboxamide (Optical Isomer)], the “HDAC6 inhibitory rate (%) (10 μM)” value came to 100%.

On to `O=C(NCC(F)(F)F)C1CC(F)(F)CCN1N1Cc2ccc(-c3nnc(C(F)F)o3)cc2C1=O` (stereo not drawn) [Example 580, 1-(6-(5-(difluoromethyl)-1,3,4-oxadiazol-2-yl)-1-oxo-1,3-dihydro-2H-isoindol-2-yl)-4,4-difluoro-N-(2,2,2-trifluoroethyl)piperidine-2-carboxamide (Optical Isomer)], for which the “HDAC6 inhibitory rate (%) (10 μM)” value is 100%.

With `O=C1c2cc(-c3nnc(C(F)F)o3)ccc2CN1N1CCCC1c1ccccn1` (stereo not drawn) [Example 596, 6-(5-(difluoromethyl)-1,3,4-oxadiazol-2-yl)-2-(2-(pyridin-2-yl)pyrrolidin-1-yl)isoindolin-1-one (optical isomer)], the “HDAC6 inhibitory rate (%) (10 μM)” value is 100%.

In the case of `O=C1c2cc(-c3nnc(C(F)F)o3)ccc2CN1N1CCCC1c1ccccn1` (stereo not drawn) [Example 597, 6-(5-(difluoromethyl)-1,3,4-oxadiazol-2-yl)-2-(2-(pyridin-2-yl)pyrrolidin-1-yl)isoindolin-1-one (optical isomer)], the “HDAC6 inhibitory rate (%) (10 μM)” value is given as 99%.

The same experiment, now with this note: 10 μM; wells without enzyme = 100% inhibition; read-out: HDAC6 inhibitory rate (%) (10 μM).
On to `O=C1c2cc(-c3nnc(C(F)F)o3)ccc2CN1[C@@H]1CCCC(F)(F)[C@H]1NC(=O)C(F)(F)C(F)F` [Example 581, N-((1S,6R)-6-(6-(5-(difluoromethyl)-1,3,4-oxadiazol-2-yl)-1-oxo-1,3-dihydro-2H-isoindol-2-yl)-2,2-difluorocyclohexyl)-2,2,3,3-tetrafluoropropanamide], for which the inhibition at 10 µM amounted to 99%.

On to `CC(C)(CF)OC(=O)N[C@H]1[C@H](N2Cc3ccc(-c4nnc(C(F)F)o4)cc3C2=O)CCCC1(F)F` [Example 582, 1-fluoro-2-methylpropan-2-yl ((1S,6R)-6-(6-(5-(difluoromethyl)-1,3,4-oxadiazol-2-yl)-1-oxo-1,3-dihydro-2H-isoindol-2-yl)-2,2-difluorocyclohexyl)carbamate], for which the inhibition at 10 µM amounted to 100%.

For the compound `CC(C)(OC(=O)N[C@H]1[C@H](N2Cc3ccc(-c4nnc(C(F)F)o4)cc3C2=O)CCCC1(F)F)C(F)F` [Example 583, 1,1-difluoro-2-methylpropan-2-yl ((1S,6R)-6-(6-(5-(difluoromethyl)-1,3,4-oxadiazol-2-yl)-1-oxo-1,3-dihydro-2H-isoindol-2-yl)-2,2-difluorocyclohexyl)carbamate], the inhibition at 10 µM was 99%.

For the compound `Cn1cc(C(=O)c2ccccc2)c(N2Cc3ccc(-c4nnc(C(F)F)o4)cc3C2=O)n1` [Example 592, 2-(4-benzoyl-1-methyl-1H-pyrazol-3-yl)-6-(5-(difluoromethyl)-1,3,4-oxadiazol-2-yl)isoindolin-1-one], the inhibition at 10 µM is 99%.

In the case of `O=C1c2cc(-c3nnc(C(F)F)o3)cnc2CN1[C@@H]1CCCC[C@H]1Oc1ccccn1` [Example 593, 3-(5-(difluoromethyl)-1,3,4-oxadiazol-2-yl)-6-((1R,2R)-2-(pyridin-2-yloxy)cyclohexyl)-6,7-dihydro-5H-pyrrolo[3,4-b]pyridin-5-one], the inhibition at 10 µM came to 100%.

Turning to `O=C1c2cc(-c3nnc(C(F)F)o3)ccc2CN1N1CCCCC1c1ccc(F)cc1` (stereo not shown) [Example 594, 6-(5-(difluoromethyl)-1,3,4-oxadiazol-2-yl)-2-(2-(4-fluorophenyl)piperidin-1-yl)isoindolin-1-one], the inhibition at 10 µM turned out to be 101%.

With `O=C1c2cc(-c3nnc(C(F)F)o3)ccc2CN1N1CCC(F)(F)CC1c1ccc(F)cn1` (stereo not shown) [Example 595, 2-(4,4-difluoro-2-(5-fluoropyridin-2-yl)piperidin-1-yl)-6-(5-(difluoromethyl)-1,3,4-oxadiazol-2-yl)isoindolin-1-one], the inhibition at 10 µM stood at 100%.

For `O=C1c2cc(-c3nnc(C(F)F)o3)cnc2CN1[C@@H]1CCCC(F)(F)[C@H]1NC(=O)C(F)(F)C(F)(F)F` [Example 599, N-((1S,6R)-6-(3-(5-(difluoromethyl)-1,3,4-oxadiazol-2-yl)-5-oxo-5,7-dihydro-6H-pyrrolo[3,4-b]pyridin-6-yl)-2,2-difluorocyclohexyl)-2,2,3,3,3-pentafluoropropanamide], the inhibition at 10 µM turned out to be 99%.

Take `Cc1ccc(C2CC(F)(F)CCN2N2Cc3ccc(-c4nnc(C(F)F)o4)cc3C2=O)nc1` (stereo not shown) [Example 600, 6-(5-(difluoromethyl)-1,3,4-oxadiazol-2-yl)-2-(4,4-difluoro-2-(5-methylpyridin-2-yl)piperidin-1-yl)isoindolin-1-one]: the inhibition at 10 µM worked out at 100%.

Take `O=C1c2cc(-c3nnc(C(F)F)o3)cnc2CN1[C@@H]1CCCC(F)(F)[C@H]1NC(=O)C(F)(F)C(F)F` [Example 601, N-((1S,6R)-6-(3-(5-(difluoromethyl)-1,3,4-oxadiazol-2-yl)-5-oxo-5,7-dihydro-6H-pyrrolo[3,4-b]pyridin-6-yl)-2,2-difluorocyclohexyl)-2,2,3,3-tetrafluoropropanamide]: the inhibition at 10 µM was 99%.

For `O=C1c2cc(-c3nnc(C(F)F)o3)ccc2CN1N1CCCCC1c1cncc(F)c1` (stereo not shown) [Example 602, 6-(5-(difluoromethyl)-1,3,4-oxadiazol-2-yl)-2-(2-(5-fluoropyridin-3-yl)piperidin-1-yl)isoindolin-1-one], the inhibition at 10 µM worked out at 101%.

For the compound `O=C1c2cc(-c3nnc(C(F)F)o3)ccc2CN1N1CCCCC1c1cccc(F)c1` (stereo not shown) [Example 603, 6-(5-(difluoromethyl)-1,3,4-oxadiazol-2-yl)-2-(2-(3-fluorophenyl)piperidin-1-yl)isoindolin-1-one], the inhibition at 10 µM amounted to 100%.

In the case of `O=C(OCc1ccccc1)C1CC(F)(F)CCN1N1Cc2ccc(-c3nnc(C(F)F)o3)cc2C1=O` (stereo not shown) [Example 604, benzyl 1-(6-(5-(difluoromethyl)-1,3,4-oxadiazol-2-yl)-1-oxo-1,3-dihydro-2H-isoindol-2-yl)-4,4-difluoropiperidine-2-carboxylate], the inhibition at 10 µM came out at 98%.

With `CC(C)(C(=O)N[C@H]1[C@H](N2Cc3ncc(-c4nnc(C(F)F)o4)cc3C2=O)CCCC1(F)F)C(F)(F)F` [Example 605, N-((1S,6R)-6-(3-(5-(difluoromethyl)-1,3,4-oxadiazol-2-yl)-5-oxo-5,7-dihydro-6H-pyrrolo[3,4-b]pyridin-6-yl)-2,2-difluorocyclohexyl)-3,3,3-trifluoro-2,2-dimethylpropanamide], the inhibition at 10 µM is 99%.

Regarding `O=C1c2cc(-c3nnc(C(F)F)o3)cnc2CN1C1CCCC(F)(F)[C@H]1NC(=O)C1(C(F)(F)F)CC1` (stereo partly shown) [Example 606], the inhibition at 10 µM is 99%.

On to `CC(C)(CF)OC(=O)N[C@H]1[C@H](N2Cc3ncc(-c4nnc(C(F)F)o4)cc3C2=O)CCCC1(F)F` [Example 607, 1-fluoro-2-methylpropan-2-yl ((1S,6R)-6-(3-(5-(difluoromethyl)-1,3,4-oxadiazol-2-yl)-5-oxo-5,7-dihydro-6H-pyrrolo[3,4-b]pyridin-6-yl)2,2-difluorocyclohexyl)carbamate], for which the inhibition at 10 µM is 99%.

As to `CC(C)(OC(=O)N[C@H]1[C@H](N2Cc3ncc(-c4nnc(C(F)F)o4)cc3C2=O)CCCC1(F)F)C(F)F` [Example 608, 1,1-difluoro-2-methylpropan-2-yl ((1S,6R)-6-(3-(5-(difluoromethyl)-1,3,4-oxadiazol-2-yl)-5-oxo-5,7-dihydro-6H-pyrrolo[3,4-b]pyridin-6-yl)-2,2-difluorocyclohexyl)carbamate], the inhibition at 10 µM was determined as 99%.
